Test results as given in patent publication US9096689B2, “Methods and compositions for inhibiting angiogenesis” (NORTHWESTERN UNIVERSITY, priority 2007, dated 2015).
“Also recorded” adds a separate entry of the source.

Columns and labels:
[1] = tested on: Human microvascular endothelial cells; assay: endothelial cell apoptosis assay (ApopTag / TUNEL); assay type: cell-based; conditions: for induction of endothelial cell apoptosis: HMVEC, overnight, low serum media, with or without bFGF, FIG. 4
Procedure: Confluent HMVEC cells growing on coverslips were incubated overnight in low serum media (0.2% FBS in MCDB)±PEDF peptides in the presence or absence of bFGF. ApopTag Fluorescein kit (Chemicon) was used to determine apoptotic cells. […] 3-5 fields (10×) were analyzed with epi-fluorescent microscope, and cells were counted using MetaMorph software. Apoptotic (FITC positive) cells were calculated as a % of total cells stained with PI per field.
The ability of the 34-mer fragments to induce endothelial cell apoptosis was next measured (FIG. 4).
In further experiments, human microvascular endothelial cells were treated with PEDF18 (SEQ ID NO:2) and PEDF11 (SEQ ID NO:102). Apoptosis was measured after 24 hours with terminal dUTP Nick-end Labeling (TUNEL) assay. […] It is noted that one advantage of PEDF11 over longer PEDF derivatives is in that this sequence is below critical length so it can be non-immunogenic during continuous applications.

[2] = tested on: Human microvascular endothelial cells; assay: endothelial cell chemotaxis assay (bFGF-induced migration); assay type: cell-based; conditions: for inhibition of bFGF-induced migration (chemotaxis): peptide at increasing concentrations; for inhibitor activity on bFGF-induced migration compared with native PEDF: vs rhPEDF at 20 nM
Procedure: The initial testing was done in the endothelial cell chemotaxis assay. Human microvascular endothelial cells to traverse gelatinized microporous membrane up the gradient of bFGF was tested in the absence and in the presence of the 14-, 18- and 23-mer peptides (FIG. 3). Human microvascular endothelial cells were plated on the lower side of gelatinized microporous membrane and allowed to adhere. The peptides (14-, 18 and 23-mer) were added at increasing concentrations to the opposite side of the gelatinized microporous membrane ([…]), alone, or in combination with basic fibroblast growth factor (bFGF, 10 ng/ml). The cells migratied to the opposite side of the membrane were counted in 10 high-powered (100×) fields. Every condition was tested in quadruplicate. bFGF-induced chemotaxis is shown (top line in each graph). Basal migration levels (0.1% bovine serum albumin) are indicated with the dotted line. Triangles (▴) show peptide alone; while squares (▪) show peptide with bFGF. The solid line (below the top line mentioned above) indicates the effect of the recombinant human PEDF (rhPEDF) at 20 nM.
Several truncated variants of P18 (SEQ ID NO:2) were generated, including an 11-mer (NFGYDLYRVRS; SEQ ID NO:102) which has the first 11 bases of P18, and an 8-mer, (NFGYDLYR; SEQ ID NO:119), which has the first 8 bases of P18. These variants were screened in endothelial cell apoptosis and chemotaxis assays, seeking those that inhibit chemotaxis and induce apoptosis with specific activity similar or better than that of P18. In particular, microvascular endothelial cells were plated in inverted modified Boyden chambers, and chemotaxis induced with bFGF (10 ng/ml). The cells migrated to bFGF were counted in 10 high-powered fields. Results for the 8-mer (SEQ ID NO:119) and the 11-mer (SEQ ID NO:102) are shown in FIGS. 12A and 12B respectively.

corneal angiogenesis = corneal angiogenesis assay; assay type: in vivo, mice; conditions: bFGF 50 ng/pellet; scored day 5
Procedure: FIGS. 5A and 5B show the results of a corneal angiogenesis assay. The 34 mer and 18-mer peptides were incorporated with bFGF (50 ng/pellet) into slow-release sucralfate pellets, which were surgically implanted into the cornea of anesthetized mice, 0.5-1 mm from the vascular limbus. The responses were scored on day 5 post implantation and the ingrowth of blood vessels from the cornea to the pellet was considered a positive response. The responses were scored as positive corneas of total implanted: statistical significance was evaluated with Fisher's Exact test. P<0.05 was considered significant. […] Endothelial cells collected from implants by dilution/centrifugation, stained with FITC-lectin and quantified by flow cytometry (5D).
Finally, the peptides were tested in vivo, in the corneal angiogenesis and directed in vivo angiogenesis assay (DIVAA). […] The responses were scored on day 5 post implantation and the ingrowth of blood vessels from the cornea to the pellet was considered a positive response. The responses were scored as positive corneas of total implanted: statistical significance was evaluated with Fisher's Exact test. […] Endothelial cells collected from implants by dilution/centrifugation, stained with FITC-lectin and quantified by flow cytometry (5D).

[3] = tested on: choroidal neovascularization; assay: laser-induced choroidal neovascularization (CNV) mouse model; assay type: in vivo, mice
Procedure: This Example describes further characterization of P18 (PEDF18) and fragments thereof. […] Intravitreous injections of 1 μg (n=24), 10 μg (n=24) of PEDF18, or vehicle (n=21) were given at the day of laser photocoagulation-induced rupture of Bruch's membrane. Two weeks after laser induction, mice were euthanized and the area of CNV was measured. […] NV=neovascularization.

angiogenesis = assay: directed in vivo angiogenesis assay (DIVAA), s.c. matrigel angioreactors; set-up: species or system nude mice; conditions: for anti-angiogenic effect in DIVAA: bFGF 37.5 and VEGF 12.5 ng/ml, day 7
Procedure: FIGS. 5A and 5B show the results of a corneal angiogenesis assay. The 34 mer and 18-mer peptides were incorporated with bFGF (50 ng/pellet) into slow-release sucralfate pellets, which were surgically implanted into the cornea of anesthetized mice, 0.5-1 mm from the vascular limbus. The responses were scored on day 5 post implantation and the ingrowth of blood vessels from the cornea to the pellet was considered a positive response. The responses were scored as positive corneas of total implanted: statistical significance was evaluated with Fisher's Exact test. P<0.05 was considered significant. […] The peptides were incorporated with a mix of bFGF and VEGF (37.5 and 12.5 ng/ml, respectively) into angioreactors filled with matrigel. The reactors were implanted s.c onto the flanks of the nude mice. On day 7, The reactors were harvested and photographed (5C). Endothelial cells collected from implants by dilution/centrifugation, stained with FITC-lectin and quantified by flow cytometry (5D).
Finally, the peptides were tested in vivo, in the corneal angiogenesis and directed in vivo angiogenesis assay (DIVAA). The 34-mer derivatives were compared in vivo with parental PEDF peptide, the 34-mer. FIG. 5 A, B: Corneal angiogenesis assay: the peptides were incorporated with bFGF (50 ng/pellet) into slow-release sucralfate pellets, which were surgically implanted into the cornea of anesthetized mice, 0.5-1 mm from the vascular limbus. The responses were scored on day 5 post implantation and the ingrowth of blood vessels from the cornea to the pellet was considered a positive response. The responses were scored as positive corneas of total implanted: statistical significance was evaluated with Fisher's Exact test. P<0.05 was considered significant. […] 5C, D. DIVAA of the 34-mer and derivative peptides. The peptides were incorporated with a mix of bFGF and VEGF (37.5 and 12.5 ng/ml, respectively) into angioreactors filled with matrigel. The reactors were implanted s.c onto the flanks of the nude mice. On day 7, the reactors were harvested and photographed (5C). Endothelial cells collected from implants by dilution/centrifugation, stained with FITC-lectin and quantified by flow cytometry (5D).

[4] = tested on: PC-3 prostate cancer xenografts; assay: tumorigenicity assay, PC-3 xenografts; assay type: in vivo, nude mice; conditions: 10 mg/kg, i.p.; for growth of PC-3 prostate cancer xenografts: from day 5 post injection
Procedure: PC-3 cells (2×10^6/site) were implanted into hindquarters of nude mice. On day 5 post injection, treatment was commenced with 34-mer and 18-mer (10 mg/kg, i.p.).

[5] = tested on: Mouse renal carcinoma cells (Renca, ATCC); assay: orthotopic renal cell carcinoma xenograft model (tumor growth and metastases); assay type: in vivo
Procedure: Mouse renal carcinoma cells (Renca, ATCC) were injected under the kidney capsule (0.5×10^6/site). Animals were randomly divided into 6 groups (8 per group) and the treatment started 5 days after inoculation (intraperitoneal injections). The following treatment groups were included: P18 (SEQ ID NO:2; 10 mg/kg); P18 (60 mg/kg); Rapamycin (R, 0.5 mg/kg); R+P18 (10 mg/kg) and R+P18 (60 mg/kg). The control group was treated with scrambled peptide, YFNGRSSPSNTNTYYVDRL (SEQ ID NO:51). After 17 days of treatment both kidneys were removed. To assess tumor growth, the weight of healthy kidney was subtracted from the weight of tumor-inoculated kidney, for each animal. The difference represents the weight of the tumor.
Metastases formation was also examined in the liver and lungs of the in the control treated animals and the groups treated with P18 and scrambled peptide (FIG. 9). The % affected organs is indicated under the representative images.

Substance	induction of endothelial cell apoptosis [1]	inhibition of bFGF-induced migration (chemotaxis) ([2]; bFGF 10 ng/ml)	inhibitor activity on bFGF-induced migration compared with native PEDF [2]	anti-angiogenic effect in DIVAA (angiogenesis)	growth of PC-3 prostate cancer xenografts [4]	other results
DLYRVRSSTSPTTN [14-mer]	very weak induction of apoptosis	inhibited bFGF-induced migration in a dose-dependent manner	superior to that of native PEDF	–	–	–
NFGYDLYRVRS [PEDF11]	–	dose-dependent inhibition	–	–	–	concentration causing EC apoptosis [1]: 10 to 100 nM; concentration at which chemotaxis is inhibited ([2]; bFGF 10 ng/ml, FIG. 12B): 1 to 10 nM; efficacy compared with P18 ([2]; chemotaxis inhibition and EC apoptosis, vs P18 (FIG. 3)): comparable to that of P18
NFGYDLYRVRSSTSPTTN [18-mer]	more potent than the parental PEDF and as potent as the 34-mer	inhibited bFGF-induced migration in a dose-dependent manner	superior to that of native PEDF	showed the best anti-angiogenic characteristics	significantly inhibited the growth	anti-angiogenic effect in corneal angiogenesis assay (corneal angiogenesis): showed the best anti-angiogenic characteristics; area of CNV at laser sites ([3]; intravitreous 1 μg or 10 μg, two weeks after laser induction, vs vehicle): significantly smaller areas of neovascularization; choroidal neovascularization (overall effect) ([3]; mouse, laser-induced, listed as PEDF18): suppresses choroidal neovascularization; also recorded: effectively alleviated laser-induced choroidal neovascularization (CNV); blocking of VEGF-induced angiogenesis (angiogenesis; in vitro and in vivo in the subcutaneous matrigel plug assays): effectively blocks VEGF-induced angiogenesis; activity in blocking angiogenesis compared with the 34-mer (angiogenesis; mouse, in vivo): more active in blocking angiogenesis than the original 34-mer; tumor volume ([4]; FIG. 6): substantial reduction in tumor volume; tumor weight ([5]; P18 alone, i.p., 17 days of treatment, vs scrambled peptide): significant (P<0.0003) decrease in tumor weight; liver metastases ([5]; P18 treatment, FIG. 9): eradicated liver metastases
AAAVSNFGYDLYRVRSSTSPTTN [23-mer]	failed to induced apoptosis	comparable to PEDF at low concentrations and lost its inhibitory activity at higher doses	–	failed to inhibit angiogenesis	–	–
34-mer: 34-mer PEDF peptide (amino acids 44-77 at the N-terminus), parental PEDF peptide (DPFFKVPVNKLAAAVSNFGYDLYRVRSSMSPTTN) [reference compound]	–	–	–	–	only marginal effect	–
